From US11590134B2, “Aminopyrimidine amide autophagy inhibitors and methods of use thereof” (Deciphera Pharmaceuticals, LLC, priority 2019, dated 2023)

Experiments:
ULK1 kinase [1] = target: T1, ULK1 kinase (Homo sapiens, UniProt O75385, E37A/K38A); experiment: Biochemical assay for ULK1.3 (coupled pyruvate kinase/lactate dehydrogenase assay); settings: 0.1 nM ULK1 (residues 1-283), peptide substrate, 1 mM ATP
T1 construct: (residues 1-283; ID NO: 2); purchased Beryllium
T1 sequence (O75385 1-283 E37A/K38A): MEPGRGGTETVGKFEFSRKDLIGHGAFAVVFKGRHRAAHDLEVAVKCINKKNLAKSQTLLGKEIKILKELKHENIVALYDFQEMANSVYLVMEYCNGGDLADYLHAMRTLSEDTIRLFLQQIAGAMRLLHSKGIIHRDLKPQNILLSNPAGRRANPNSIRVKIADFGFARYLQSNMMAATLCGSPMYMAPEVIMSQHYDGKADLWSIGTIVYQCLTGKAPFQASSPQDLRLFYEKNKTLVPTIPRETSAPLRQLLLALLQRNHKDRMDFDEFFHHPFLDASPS
Experimental: Activity of ULK1 kinase was determined spectroscopically using a coupled pyruvate kinase/lactate dehydrogenase assay that continuously monitors the ATP hydrolysis-dependent oxidation of NADH (e.g., Schindler et al. Science (2000) 289: 1938-1942). Assays were conducted in 384-well plates (100 uL final volume) using 0.1 nM ULK1 (from Beryllium), 0.075 mM peptide substrate (YANWLAASIYLDGKKK (SEQ ID NO: 5)), 1.5 units pyruvate kinase, 2.1 units lactate dehydrogenase, 1 mM phosphoenol pyruvate, 0.28 mM NADH and 1 mM ATP in assay buffer (100 mM Tris, pH 7.5, 15 mM MgCl2, 0.5 mM DTT, 0.004% (w/v) BSA, and 0.004% Triton X-100). Inhibition of ULK1 was measured by adding serial diluted test compound (final assay concentration of 1% DMSO). A decrease in absorption at 340 nm was monitored continuously for 6 hours at 30° C. on a multi-mode microplate reader (BioTek). The reaction rate was calculated using the 2-3 h time frame. The reaction rate at each concentration of compound was converted to percent inhibition using controls (i.e. reaction with no test compound and reaction with a known inhibitor) and IC50 values were calculated using software routines in Prism (GraphPad software).

ULK1 kinase [2] = target: T2, ULK1 kinase (Homo sapiens, UniProt O75385); experiment: Biochemical assay for ULK1.2 (coupled pyruvate kinase/lactate dehydrogenase assay); settings: 19 nM ULK1 (residues 1-314), myelin basic protein substrate, 1 mM ATP
T2 construct: purchased Eurofins 14-959
T2 sequence (O75385 with tags, fused parts or gaps): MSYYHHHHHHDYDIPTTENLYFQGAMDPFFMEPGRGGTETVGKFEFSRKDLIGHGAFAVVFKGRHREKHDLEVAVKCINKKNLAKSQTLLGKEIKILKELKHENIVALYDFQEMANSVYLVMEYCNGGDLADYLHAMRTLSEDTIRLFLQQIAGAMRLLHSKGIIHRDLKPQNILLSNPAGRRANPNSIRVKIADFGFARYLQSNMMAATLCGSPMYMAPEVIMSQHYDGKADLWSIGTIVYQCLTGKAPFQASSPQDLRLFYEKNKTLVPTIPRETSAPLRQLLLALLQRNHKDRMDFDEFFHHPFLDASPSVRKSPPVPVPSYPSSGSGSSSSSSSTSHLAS
Experimental: Activity of ULK1 kinase was determined spectroscopically using a coupled pyruvate kinase/lactate dehydrogenase assay that continuously monitors the ATP hydrolysis-dependent oxidation of NADH (e.g., Schindler et al. Science (2000) 289: 1938-1942). Assays were conducted in 384-well plates (100 uL final volume) using 19 nM ULK1 (Eurofins CAT #14-959), 0.25 mg/mL myelin basic protein, 1.5 units pyruvate kinase, 2.1 units lactate dehydrogenase, 1 mM phosphoenol pyruvate, 0.28 mM NADH and 1 mM ATP in assay buffer (100 mM Tris, pH 7.5, 15 mM MgCl2, 0.5 mM DTT, 0.1% octyl-glucoside, 0.002% (w/v) BSA, and 0.002% Triton X-100). Inhibition of ULK1 was measured by adding serial diluted test compound (final assay concentration of 1% DMSO). A decrease in absorption at 340 nm was monitored continuously for 6 hours at 30° C. on a multi-mode microplate reader (BioTek). The reaction rate was calculated using the 2-3 h time frame. The reaction rate at each concentration of compound was converted to percent inhibition using controls (i.e. reaction with no test compound and reaction with a known inhibitor) and IC50 values were calculated by fitting a four-parameter sigmoidal curve to the data using Prism (GraphPad software).

Structure (SMILES)	IC50 (ULK1 kinase [1])	IC50 (ULK1 kinase [2])
CC(C)c1cc(N2CCN(C)CC2)ccc1Nc1ncc(Br)c(NCCCNC(=O)C2CCC2)n1 [Example 8]	25 to 100 nM	–
CN1CCN(c2ccc(Nc3ncc(C(F)(F)F)c(NCCCNC(=O)C4CCC4)n3)c(C3CC3)c2)CC1 [Example 14]	1 to 25 nM	–
COc1cc(N2CCN(C)CC2)ccc1Nc1ncc(C(F)(F)F)c(NCCCNC(=O)C2CCC2)n1 [Example 4]	25 to 100 nM	–
Cc1cc(N2CCN(C)CC2)ccc1Nc1ncc(C(F)(F)F)c(NCCCNC(=O)C(C)(C)C)n1 [Example 12]	–	25 to 100 nM
CC(C)c1cc(N2CCN(C)CC2)ccc1Nc1ncc(C(F)(F)F)c(NCCCNC(=O)C2CCC2)n1 [Example 3]	1 to 25 nM	–
